Reference: ChEMBL document CHEMBL4152252, “Fluorine walk: The impact of fluorine in quinolone amides on their activity against African sleeping sickness” (Eur J Med Chem, 2018)
In brackets after ≈: the same amount, converted by molar mass.

Columns and labels:
[1] = Selectivity index, ratio of CC50 for mouse J774.1 cells to IC50 for trypomastigote forms of Trypanosoma brucei brucei TC 221 assessed as parasite growth inhibition after 48 hrs; type: toxicity; conditions: read-out: Ratio CC50/IC50
[2] = test system: Trypanosoma brucei brucei; experiment: Antitrypanosomal activity against trypomastigote forms of Trypanosoma brucei brucei TC 221 assessed as parasite growth inhibition after 72 hrs by Alamar blue assay; type: functional, organism-based; conditions: TC 221, 72 h
[3] = test system: Trypanosoma brucei brucei; experiment: Antitrypanosomal activity against trypomastigote forms of Trypanosoma brucei brucei TC 221 assessed as parasite growth inhibition after 48 hrs by Alamar blue assay; type: functional, organism-based; conditions: TC 221, 48 h
[4] = Cytotoxicity against mouse J774.1 cells after 24 hrs by Alamar blue assay; type: cell-based
[5] = Octanol/water partition co-efficient, log P of the compound by HPLC based method; type: physicochemical
[6] = Thermodynamic equilibrium solubility of the compound in pH 7.4 phosphate buffered saline after 24 hrs by shake flask method; type: physicochemical; conditions: read-out: Therm_solubility
[7] = Drug metabolism in rat liver microsomes assessed as CYP450-mediated oxidative N-dealkylation by measuring 3-(benzylcarbamoyl)-1-ethyl-5-fluoro-7-morpholino-4-oxo-1,4-dihydroquinolinium formation at 100 uM using NADPH/H+ as co-factor after 30 to 90 mins by LC/MSD iom trap method; type: ADME
[8] = Drug metabolism in rat liver cytosol assessed as CYP450-mediated oxidative N-dealkylation by measuring 3-(benzylcarbamoyl)-1-ethyl-5-fluoro-7-morpholino-4-oxo-1,4-dihydroquinolinium formation at 100 uM using NADPH/H+ as co-factor after 30 to 90 mins by LC/MSD iom trap method; type: ADME, subcellular
[9] = Drug metabolism in rat liver microsomes assessed as CYP450-mediated amide hydrolysis amidase by measuring 1-butyl-3-carbamoyl-5-fluoro-7-morpholino-4-oxo-1,4-dihydroquinolinium formation at 100 uM using NADPH/H+ as co-factor after 30 to 90 mins by LC/MSD iom trap method; type: ADME
[10] = Half life in rat liver cytosol; type: ADME, subcellular
[11] = Drug metabolism in rat liver cytosol assessed as CYP450-mediated amide hydrolysis amidase by measuring 1-butyl-3-carbamoyl-5-fluoro-7-morpholino-4-oxo-1,4-dihydroquinolinium formation at 100 uM using NADPH/H+ as co-factor after 30 to 90 mins by LC/MSD iom trap method; type: ADME, subcellular
[12] = Stability in rat liver cytosol assessed as compound turnover per mg protein; type: ADME, subcellular
[13] = Drug metabolism in rat liver microsomes assessed as CYP450-mediated amide hydrolysis oxidative N-dealkylation by measuring 3-carbamoyl-5-fluoro-1-methyl-7-morpholino-4-oxo-1,4-dihydroquinolinium formation at 100 uM using NADPH/H+ as co-factor after 30 to 90 mins by LC/MSD iom trap method; type: ADME
[14] = (§1) Drug metabolism in rat liver microsomes assessed as CYP450-mediated (w-1)-oxidation/alipathic hydroxylation by measuring 3-(benzylcarbamoyl)-5-fluoro-1-(3-hydroxybutyl)-7-morpholino-4-oxo-1,4-dihydroquinolinium formation at 100 uM using NADPH/H+ as co-factor after 30 to 90 mins by LC/MSD iom trap method; type: ADME
[15] = Drug metabolism in rat liver cytosol assessed as CYP450-mediated amide hydrolysis oxidative N-dealkylation by measuring 3-carbamoyl-5-fluoro-1-methyl-7-morpholino-4-oxo-1,4-dihydroquinolinium formation at 100 uM using NADPH/H+ as co-factor after 30 to 90 mins by LC/MSD iom trap method; type: ADME, subcellular
[16] = as §1, with “cytosol” for “microsomes”; type: ADME, subcellular
[17] = Solubility of the compound in RPMI-1640 medium; type: physicochemical
[18] = Drug level in rat liver microsomes assessed as CYP450-mediated metabolite formation treated with N-benzyl-1-butyl-5-fluoro-7-morpholino-4-oxo-1,4-dihydroquinoline-3-carboxamide at 100 uM using NADPH/H+ as co-factor after 30 to 90 mins by LC/MSD iom trap method; type: ADME
[19] = Drug level in rat liver cytosol assessed as CYP450-mediated metabolite formation treated with N-benzyl-1-butyl-5-fluoro-7-morpholino-4-oxo-1,4-dihydroquinoline-3-carboxamide at 100 uM using NADPH/H+ as co-factor after 30 to 90 mins by LC/MSD iom trap method; type: ADME, subcellular
[20] = Drug level in rat liver microsomes assessed as CYP450-mediated metabolite formation treated with 1-Butyl-6-fluoro-N-(4-fluorobenzyl)-7-morpholino-4-oxo-1,4-dihydroquinoline-3-carboxamide at 100 uM using NADPH/H+ as co-factor after 30 to 90 mins by LC/MSD iom trap method; type: ADME
[21] = Drug level in rat liver cytosol assessed as CYP450-mediated metabolite formation treated with 1-Butyl-6-fluoro-N-(4-fluorobenzyl)-7-morpholino-4-oxo-1,4-dihydroquinoline-3-carboxamide at 100 uM using NADPH/H+ as co-factor after 30 to 90 mins by LC/MSD iom trap method; type: ADME, subcellular
[22] = Drug level in rat liver cytosol assessed as CYP450-mediated metabolite formation treated with 1-Butyl-5-fluoro-N-(4-fluorobenzyl)-7-morpholino-4-oxo-1,4-dihydroquinoline-3-carboxamide at 100 uM using NADPH/H+ as co-factor after 30 to 90 mins by LC/MSD iom trap method; type: ADME, subcellular
[23] = Drug level in rat liver microsomes assessed as CYP450-mediated metabolite formation treated with 1-Butyl-5-fluoro-N-(4-fluorobenzyl)-7-morpholino-4-oxo-1,4-dihydroquinoline-3-carboxamide at 100 uM using NADPH/H+ as co-factor after 30 to 90 mins by LC/MSD iom trap method; type: ADME
[24] = Drug uptake in brain of B6/J mouse at 19.3 +/- 2.3 MBq, iv after 60 mins by autoradiography; type: ADME, organism-based; conditions: in vivo, 1 h

Structure (SMILES)	selectivity ratio at 48 h [1]	IC50 [2] [nM]	IC50 [3] [nM]	CC50 at 24 h [4] [nM]	logP [5]	further results
CCCCn1cc(C(=O)NCc2ccccc2F)c(=O)c2cc(F)c(N3CCOCC3)cc21	90	460	410	37000		
O=C(NCc1ccccc1)c1cn(CCCO)c2cc(N3CCOCC3)c(F)cc2c1=O	160	550	270	43100	3.04	solubility thermodynamic at 24 h [6]: 18.7 µg/mL (≈ 42.5 µM)
O=C(NCc1ccccc1)c1cn(CCCOCc2ccccc2)c2cc(N3CCOCC3)c(F)cc2c1=O				> 100000	3.9	
CCCCn1cc(C(=O)NCc2ccccc2)c(=O)c2c(F)cc(N3CCOCC3)cc21	> 2000	80	50	> 100000	3.36	Drug metabolism [7]: Metabolite_Detected; solubility thermodynamic at 24 h [6]: 0.12 µg/mL (≈ 0.274 µM); Drug metabolism [8]: Metabolite_Detected; Drug metabolism [9]: Metabolite_Detected; half-life [10]: 7.2 h; Drug metabolism [11]: Metabolite_Detected; Drug metabolism [12]: 4.3 pmol/min/mg protein; Drug metabolism [13]: Metabolite_Detected; Drug metabolism [14]: Metabolite_Detected; Drug metabolism [15]: Metabolite_Detected; Drug metabolism [16]: Metabolite_Detected
CCCCn1cc(C(=O)NCc2ccccc2)c(=O)c2cc(OC)c(N3CCOCC3)cc21	135	240	310	42000	3.73	solubility thermodynamic at 24 h [6]: 2.73 µg/mL (≈ 6.07 µM)
CCCCn1cc(C(=O)NCc2ccccc2)c(=O)c2cc(F)c(N3CCOCC3)c(F)c21	> 333	200	60	> 20000	4.57	solubility [17]: Insoluble
CCCCn1cc(C(=O)NCc2ccc(F)cc2F)c(=O)c2cc(F)c(N3CCOCC3)cc21	1990	30	30	59600		Drug metabolism [12]: 5.94 pmol/min/mg protein
CCCCn1cc(C(N)=O)c(=O)c2c(F)cc(N3CCOCC3)cc21						Drug metabolism [18]: Metabolite_Detected; Drug metabolism [19]: Metabolite_Detected
Cn1cc(C(=O)NCc2ccc(F)cc2)c(=O)c2cc(F)c(N3CCOCC3)cc21						Drug metabolism [20]: Metabolite_Detected; Drug metabolism [21]: Metabolite_Detected
Cn1cc(C(=O)NCc2ccc(F)cc2)c(=O)c2c(F)cc(N3CCOCC3)cc21						Drug metabolism [22]: Metabolite_Detected; Drug metabolism [23]: Metabolite_Detected
O=C(NCc1ccccc1)c1cn(CCC[18F])c2cc(N3CCOCC3)c(F)cc2c1=O						Drug uptake [24]: Active
CCn1cc(C(=O)NCc2ccccc2)c(=O)c2c(F)cc(N3CCOCC3)cc21						Drug metabolism [18]: Metabolite_Detected; Drug metabolism [19]: Metabolite_Detected
O=C(NCc1ccccc1)c1cn(CCCF)c2cc(N3CCOCC3)c(F)cc2c1=O	353	170	120	42400	3.34	solubility thermodynamic at 24 h [6]: 1.41 µg/mL (≈ 3.19 µM)
CCn1cc(C(=O)NCc2ccc(F)cc2)c(=O)c2c(F)cc(N3CCOCC3)cc21						Drug metabolism [22]: Metabolite_Detected; Drug metabolism [23]: Metabolite_Detected
CC(O)CCn1cc(C(=O)NCc2ccccc2)c(=O)c2c(F)cc(N3CCOCC3)cc21 (stereo unspecified)						Drug metabolism [18]: Metabolite_Detected; Drug metabolism [19]: Metabolite_Detected
CCCCn1cc(C(=O)NCc2ccccc2)c(=O)c2c(N(C)C)cc(N3CCOCC3)cc21	24	4800	1850	44000		
CCCCn1cc(C(=O)O)c(=O)c2cc(F)c(N3CCOCC3)cc21						Drug metabolism [20]: Metabolite_Detected; Drug metabolism [21]: Metabolite_Detected
CCCCn1cc(C(=O)NCc2ccccc2)c(=O)c2ccc(N3CCOCC3)cc21	> 435	200	230	> 100000	3.51	solubility thermodynamic at 24 h [6]: 1.36 µg/mL (≈ 3.24 µM)
CCCCn1cc(C(=O)NCc2ccccc2)c(=O)c2cc(F)c(N3CCOCC3)cc21						solubility thermodynamic at 24 h [6]: 0.005 µg/mL (≈ 0.0114 µM); half-life [10]: 5.8 h; Drug metabolism [12]: 47.11 pmol/min/mg protein
Cn1cc(C(N)=O)c(=O)c2c(F)cc(N3CCOCC3)cc21						Drug metabolism [18]: Metabolite_Detected; Drug metabolism [19]: Metabolite_Detected
CCCCn1cc(C(=O)NCc2ccccc2)c(=O)c2ccc(N3CCOCC3)c(F)c21	> 32	860	790	> 25000	4.09	solubility thermodynamic at 24 h [6]: 0.23 µg/mL (≈ 0.526 µM); solubility [17]: Insoluble
O=C(NCc1ccc(F)cc1)c1c[nH]c2cc(N3CCOCC3)cc(F)c2c1=O						Drug metabolism [22]: Metabolite_Detected; Drug metabolism [23]: Metabolite_Detected
CCCCn1cc(C(=O)NCc2ccccc2)c(=O)c2cc(C(F)(F)F)c(N3CCOCC3)cc21	146	590	540	78600	4.18	
CCCCn1cc(C(=O)NCc2ccccc2)c(=O)c2c(OC)cc(N3CCOCC3)cc21	68	650	760	51800		
O=C(NCc1ccc(F)cc1)c1c[nH]c2cc(N3CCOCC3)c(F)cc2c1=O						Drug metabolism [20]: Metabolite_Detected; Drug metabolism [21]: Metabolite_Detected
CC(O)CCn1cc(C(=O)NCc2ccc(F)cc2)c(=O)c2cc(F)c(N3CCOCC3)cc21 (stereo unspecified)						Drug metabolism [20]: Metabolite_Detected; Drug metabolism [21]: Metabolite_Detected
CCCCn1cc(C(=O)NCc2ccccc2)c(=O)c2c(F)c(F)c(N3CCOCC3)cc21	> 625	30	40	> 25000	3.97	solubility [17]: Insoluble
CCCCn1cc(C(=O)O)c(=O)c2c(F)cc(N3CCOCC3)cc21						Drug metabolism [22]: Metabolite_Detected; Drug metabolism [23]: Metabolite_Detected
